These results are taken from article PMC11352370, “Live Cell Monitoring of Phosphodiesterase Inhibition by Sulfonylurea Drugs” (Biomolecules, 2024).

The test system of the experiment is T1, PDE3B.
T1 construct: Epac2-camps-PDE3B fusion biosensor
As to the kind of experiment: live-cell FRET with Epac-camps/PDE3B fusion biosensors in HEK293a cells. It is filed as cell-based.

By IC50 is commonly meant the midpoint of a concentration-inhibition curve.

As to `CCCCNC(=O)NS(=O)(=O)c1ccc(C)cc1` [TOL, tolbutamide], the concentration for half-maximal inhibition (IC50) was around 700 µM.
